In patent publication US4091006A, “Esters of 3-hydroxyindone compounds” (priority 1975, dated 1978):
≈ marks a conversion by molar mass, not a printed value.

Experiments:
Tomato = test: Phytotoxicity, tomato; details: 2500 ppm, 10 days
Description: (§5) Experiments were also conducted to determine the phytotoxicity of representative enol ester compositions with respect to healthy fresh plants. […] The test plants were sprayed in accordance with the procedure described above for the Mite Foliage Spray Test so as to deliver approximately 100 milliliters of test solution to the leaves of each plant tested. The sprayed plants and controls were set aside for approximately 1 hour to allow the solutions to dry and were then placed in the greenhouse. After 10 days the plants were visually inspected to determine the extent of foliage injury. A rating of 1 indicates no perceptible injury; 5 indicates the plant was dead and ratings of 2, 3 and 4 indicate intermediate degrees of injury based upon the number and extent to which leaves were injured.

Mite Adults = test: whole plant or invertebrate; details: for Mite Adults LD95: concentration to kill 95 percent; for LC50: Tetranychus urticae, read-out: Mite Adults LD50
Description: Adults and nymphal stages of the two-spotted mite (tetranychus urticae (Koch)), reared on Tendergreen bean plants at 80±5° F. and 50±5 percent relative humidity, were the test organisms. Infested leaves from a stock culture were placed on the primary leaves of two bean plants 6 to 8 inches in height, growing in a 21/2 inch clay pot. 150-200 Mites, a sufficient number for testing, transferred from the excised leaves to the fresh plants in a period of 24 hours. Following the 24 hour transfer period, the excised leaves were removed from the infested plants. The test compounds were formulated by diluting the stock suspension with water to provide suspensions containing the desired amount of test compound per million parts of final formulation. The potted plants (one pot per compound) were placed on a revolving turntable and sprayed with 100-110 milliliters of test compound formulation by use of a DeVilbis spray gun set at 40 psi. air pressure. This application, which lasted 30 seconds, was sufficient to wet the plants to run-off. As a control, 100-110 milliliters of a water solution containing acetone and emulsifier in the same concentrations as the test compound formulation, but containing no test compound, were also sprayed on infested plants. The sprayed plants were held at 80±5° F. and 50±5 percent relative humidity for 4 days, after which, a mortality count of motile forms was made. Microscopic examination for motile forms was made on the leaves of the test plants. Any individual which was capable of locomotion upon prodding was considered living.
(§1) Side by side comparison tests were conducted to determine the effectiveness of selected enol ester compounds relative to (bis(p-chlorophenyl)trichlorethanol) a miticide sold under the trademark Kelthane and ovex (p-chlorophenyl-p-chlorobenzene sulfonate) two widely used commercial miticides.

[1] = system: Perennial rye grass, crabgrass, red root pigweed, mustard; test: Preliminary Herbicide Seed Germination Test; details: rating/maximum 40: 100 and 1000 ppm, four species, each rated 1 (no injury) to 5 (no seedlings emerged), 10-12 days
Description: The thus-prepared stock suspension contained 0.5 percent by weight of compound. The test concentrations employed in the tests described hereinbelow were obtained by diluting the stock suspension with water. The test procedures were as follows:
The following seeds were used in this test:
Crabgrass -- Digitaria san-
Mustard -- Brassica pincea var.
Each of above mixtures is rolled separately in 5 gallon containers for approximately one-half hour on ball mill to insure uniform mixing of seeds and soil. For each compound four 3-inch pots are filled with soil to within 11/2 inches of top of pots. To 2 of these pots are added 70 cc. of Mixture I. To the remaining 2 pots are added 70 cc. of Mixture II. The seed-soil mixture is tamped firmly, and the pots are removed to the greenhouse and watered lightly. About 2 hours after planting, 25 milliliters of the test formulation were added to each of 2 pots for each soil-seed mixture; i.e., one replicate of each seed mixture per concentration. An equal volume of a water solution containing acetone and an emulsifier in the same concentration as the herbicidal mixture but without the candidate herbicide is also added to each of the soil-seed mixtures. These pots are used as check or control units. The test compounds are formulated by standard procedure of solution in acetone, addition of an emulsifier, and dilution with water. Tests were conducted on all compositions at low concentration (100 ppm.). Certain compositions were also tested at high concentration (1000 ppm). The pots were held in the greenhouse and watered lightly until results were taken. Ten to twelve days after application of chemical, injury is noted for each species by comparing treated vs. untreated pots. Ratings are made at both the high and the low concentrations (1000 ppm and 100 ppm) according to the following designations:
4 = few seedlings emerged and/or very severe stunting
3 = moderate reduction in stand and/or moderate stunting
2 = very slight reduction in stand and/or slight stunting
1 = no injury; seedlings appear no different with respect to stand or growth than untreated controls
Accordingly, the maximum rating for one test seed species tested at both high and low concentration is 10 and the maximum possible total preemergence rating is 40 (10 for each of the four test seed species). […] In some tests the crabgrass experiment was omitted. In these tests the maximum total rating for species tested at both high and low concentrations is 30 and 15 for species tested only at low concentrations.

[2] = system: eggs of the two-spotted mite; test: Fumigant toxicity, Method 1 (deposit in pie plate); format: in vivo; details: deposit approx. 160 μg per square cm, 4 days
Description: (§2) Two methods were used to evaluate fumigant properties:
Method 1: Fifty mg. of each compound were dissolved in 5 ml. of acetone and poured into a 20 cm. (bottom diameter) Pyrex No. 210 pie plate. The acetone was allowed to evaporate leaving a deposit of approximately 160 μg. per square cm. The plate was then placed in the bottom of a 50 pound metal lard container (about 30 cm. in diameter and 34 cm. high). Two excised bean plants, held in a 250 ml. Erlenmeyer flask containing 100 ml. of tap water and infested with eggs of the two-spotted mite, were placed in the center of the pie plate. The container was held in the insectary (temperature 80±5° F., 50±5% R. H.) for four days before mortality determinations were made.

[3] = system: adults and nymphal stages of the two-spotted mite; test: Mite Foliage Spray Test; format: in vivo, Tetranychus urticae (Koch); details: 4 days
Description: (§3) The test procedures were as follows:
(§4) Compositions were rated on the basis of percent kill with a rating of 1 indicating no mortality; 3 signifying an approximately 50% mortality and 5 indicating 100% mortality at the indicated dosage.

[4] = system: egg of the two-spotted mite; test: Mite Ovicide Test; format: in vivo, Tetranychus urticae (Koch); details: spray on eggs, 4 days
Description: as §3
The plants were allowed to dry thoroughly.
as §4

Cotton = test: Phytotoxicity, cotton; details: 2500 ppm, 10 days
Description: as §5

Mite Ova = test: whole plant or invertebrate; details: for Mite Ova LD95: concentration to kill 95 percent; for LC50: Tetranychus urticae, read-out: Mite Ova LD50
Description: The test organism was the egg of the two-spotted mite (Tetranychus urticae (Koch)), as obtained from adults reared on Tendergreen bean plants under controlled conditions of 80±5° F. and 50±5 percent relative humidity. Heavily infested leaves from a stock culture were placed on the primary leaves of two bean plants 6 to 8 inches in height, growing in a 21/2 inch clay pot. Females were allowed to oviposit for a period of 48 hours and then the leaves of the infested plants were dipped in a solution containing 800 parts of tetraethyl pyrophosphate per million parts of water in order to destroy the reproductory forms and thus prevent further egg laying. […] The plants were allowed to dry thoroughly. […] The potted plants (one pot per compound) were placed on a revolving turntable and sprayed with 100-110 milliliters of test compound formulation by use of a DeVilbis spray gun set at 40 psig. air pressure. This application, which lasted 30 seconds, was sufficient to wet the plants to run-off. As a control, 100-110 milliliters of a water solution containing acetone and emulsifier in the same concentrations as the test compound formulation, but containing no test compound, were also sprayed on plants infested with eggs. The sprayed plants were held at 80±5° F. and 50±5 percent relative humidity for 4 days, after which a microscopic examination was made of unhatched (dead) and hatched (living) eggs.
as §1

Corn = test: Phytotoxicity, corn; details: 2500 ppm, 10 days
Description: as §5

Bean = test: Phytotoxicity, bean; details: 2500 ppm, 10 days
Description: as §5

[5] = system: egg forms of the two-spotted mite; test: Fumigant toxicity, Method 2 (treated plants near untreated infested plants); format: in vivo; details: 500 ppm dip, 4 days
Description: as §2
Method 2: Excised bean plants infested with egg forms of the two-spotted mite were dipped in an aqueous preparation (500 ppm) of the test compound. The treated plants were transferred to 250 ml. Erlenmeyer flasks containing 100 ml. of tap water. Four flasks holding treated plants were evenly spaced around a similar flask in which were placed untreated mite-infested plants so that the leaves of the treated foliage were in close proximity (1-3 inches) to the untreated plants. Four days later mortality determinations were made.

two-spotted mite = test: Small scale field tests, mite control on Tendergreen bean plants; format: in vivo, Tetranychus urticae (Koch); details: for Average mite control rating, 3rd Reading: 21 days
Description: Selected enol ester compositions were evaluated in small scale field tests to determine whether the excellent miticidal properties observed in greenhouse testing would be obtained under actual conditions of field use.
In Test I 500 ppm aqueous dispersions were prepared as described above. In tests II and III various dilutions of the test compounds ranging from 125 ppm to 1000 ppm were prepared and used. In each case the test dispersions were applied to a minimum of two replicate test plots measuring five feet in length and containing healthy young Tendergreen bean plants which had previously been infested with two-spotted mite (Tetranychus urticae (Koch)). Dispersions of the test compounds at each concentration level were applied to individual replicate plots using 1/2 gallon garden sprayers equipped with spray nozzles to apply approximately 250 ml. of test solution to each replicate. The effectiveness of the treatment was determined at intervals following application, by microscopic examination of five leaves selected at random from each replicate plot. The degree of effectiveness for each leaf was rated on a scale of from 1 to 5 with 1 indicating no control in reference to a standard sprayed with a mixture of solution less test compound and 5 indicating complete control. The results obtained from inspection of sample leaves were then averaged to give a numerical indication of the degree of control for each compound tested at the concentration applied.

Compound	Phytotoxicity Rating, Tomato (Tomato)	Mite Adults LD95 (Mite Adults) [ppm]	Herbicide (total preemergence rating) [1]	Fumigant Toxicity Method 1 [2]	Mite Adult rating [3]	Mite Ova rating [4]	Phytotoxicity Rating, Cotton (Cotton)	Mite Ova LD95 (Mite Ova) [ppm]	Phytotoxicity Rating, Corn (Corn)	Phytotoxicity Rating, Bean (Bean)	Fumigant Toxicity Method 2 [5]	LC50 (Mite Adults) [mg/L]	LC50 (Mite Ova) [mg/L]	also measured
CCCCC(CC)C(=O)OC1=C(c2c(C)cc(C)cc2C)C(=O)c2ccccc21 (stereo not shown) [2-(2',4',6'-Trimethylphenyl)-3-(2-ethylhexanoyloxy)indone]	1	230	29/40	1	5 (100% mortality)	5 (100% mortality)	1	6	1	2	1			
Cc1cc(C)c(C2=C(OC(=O)C(C)(C)C)c3ccccc3C2=O)c(C)c1 [2-(2',4',6'-Trimethylphenyl)-3-(pivaloyloxy)indone]	3	170	32/40	5 (80-100% control)	5 (100% mortality)	5 (100% mortality)	3	9	3	1	5 (80-100% control)	5 (≈ 14.3 µM)	3 (≈ 8.61 µM)	Average mite control rating, 1st Reading (two-spotted mite; Test I, 500 ppm, 4 days, scale 1 (no control) to 5 (complete control)): 4.0; Average mite control rating, 2nd Reading (two-spotted mite; Test I, 500 ppm, 8 days, scale 1 to 5): 3.5; Average mite control rating, 1st Reading (two-spotted mite; Test II, 250 ppm, 3 days, scale 1 to 5): 3.0; Average mite control rating, 2nd Reading (two-spotted mite; Test II, 250 ppm, 7 days, scale 1 to 5): 4.0; Average mite control rating, 1st Reading (two-spotted mite; Test II, 500 ppm, 3 days, scale 1 to 5): 2.3; Average mite control rating, 2nd Reading (two-spotted mite; Test II, 500 ppm, 7 days, scale 1 to 5): 4.7; Average mite control rating, 1st Reading (two-spotted mite; Test III, 125 ppm, 3 days, scale 1 to 5): 1.7; Average mite control rating, 2nd Reading (two-spotted mite; Test III, 125 ppm, 7 days, scale 1 to 5): 2.3; Average mite control rating, 3rd Reading (two-spotted mite; Test III, 125 ppm, scale 1 to 5): 1.7; Average mite control rating, 1st Reading (two-spotted mite; Test III, 250 ppm, 3 days, scale 1 to 5): 3.0; Average mite control rating, 2nd Reading (two-spotted mite; Test III, 250 ppm, 7 days, scale 1 to 5): 4.0; Average mite control rating, 3rd Reading (two-spotted mite; Test III, 250 ppm, scale 1 to 5): 3.7; Average mite control rating, 1st Reading (two-spotted mite; Test III, 500 ppm, 3 days, scale 1 to 5): 3.0; Average mite control rating, 2nd Reading (two-spotted mite; Test III, 500 ppm, 7 days, scale 1 to 5): 4.0; Average mite control rating, 3rd Reading (two-spotted mite; Test III, 500 ppm, scale 1 to 5): 4.5
OC(c1ccc(Cl)cc1)(c1ccc(Cl)cc1)C(Cl)(Cl)Cl [Kelthane, bis(p-chlorophenyl)trichlorethanol]		65						700				20 (≈ 54 µM)	370 (≈ 999 µM)	
O=S(=O)(Oc1ccc(Cl)cc1)c1ccc(Cl)cc1 [Ovex, p-chlorophenyl-p-chlorobenzene sulfonate, reference compound]								300				1000	200	
